Measurements published in patent US8980254B2, “Formulation for oral administration of proteins” (Alvine Pharmaceuticals, Inc., priority 2008, dated 2015).
“Also recorded” adds a separate entry of the source.

Assays:
Assay type in all cases: biochemical, barley
[1] = target: T1, ALV001 (Hordeum vulgare, UniProt P25250); experiment: Stabilization of ALV001* in early postprandial gastric fluid by reducing agents; parameters: ALV001*(the active form of ALV001) is produced upon proteolytic cleavage of ALV001; made in house
Method: (§1) Frozen human postprandial gastric fluids were thawed and centrifuged at 21,000 g for 5 minutes to pellet insoluble material, and the supernatant was used for this example. Between 50 and 200 μl of gastric fluid were added to the wells of a 96-well plate and incubated at 37° C. When antioxidants were added, they were added at this step. […] At the specified sampling time, a 1.6 μl sample of gastric fluid was diluted in assay buffer to give a final volume of 280 μl, and the concentration was measured by a chromogenic activity assay using Z-Phe-Arg-p-nitroaniline (pNA) as the substrate. The method is based on the ability of pNA to absorb at 410 nm when released from the substrate. ALV001 is the proenzyme or zymogen for Endoprotease B (Isoform 2) that cleaves the C-terminal side of the arginine in the sequence Phe-Arg. Enzymatic cleavage and subsequent release of pNA may be monitored by the change in absorbance at 410 nm. To determine the reaction rate, the absorbance at 410 nm was measured every 10 seconds for 1 minute. The slope of the regression line divided by the enzyme concentration was the reported enzyme activity.
Target sequence in this assay (P25250 134-373): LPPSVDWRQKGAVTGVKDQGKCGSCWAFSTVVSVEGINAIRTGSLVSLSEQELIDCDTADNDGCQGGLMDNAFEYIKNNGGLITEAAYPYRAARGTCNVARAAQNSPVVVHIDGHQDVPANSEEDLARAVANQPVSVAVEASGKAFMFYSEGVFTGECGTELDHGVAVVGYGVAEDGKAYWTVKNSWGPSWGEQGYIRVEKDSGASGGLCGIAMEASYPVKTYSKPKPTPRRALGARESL

[2] = target: T1, ALV001; experiment: Stabilization of ALV001 in ex vivo postprandial gastric fluid by added antioxidants/reducing/chelating agents (chromogenic activity); parameters: ALV001 is the proenzyme or zymogen for Endoprotease B (Isoform 2); made in house; conditions: for stability of ALV001 activity with agent added (FIG. 6): 15 minute postprandial gastric fluid, 37° C., 1.5-45 minutes; for stabilization (preservation of activity) of ALV001 in ex vivo gastric fluid: summary statement, concentration not given
Method: as §1
Target sequence in this assay (P25250 29-373 limits assumed): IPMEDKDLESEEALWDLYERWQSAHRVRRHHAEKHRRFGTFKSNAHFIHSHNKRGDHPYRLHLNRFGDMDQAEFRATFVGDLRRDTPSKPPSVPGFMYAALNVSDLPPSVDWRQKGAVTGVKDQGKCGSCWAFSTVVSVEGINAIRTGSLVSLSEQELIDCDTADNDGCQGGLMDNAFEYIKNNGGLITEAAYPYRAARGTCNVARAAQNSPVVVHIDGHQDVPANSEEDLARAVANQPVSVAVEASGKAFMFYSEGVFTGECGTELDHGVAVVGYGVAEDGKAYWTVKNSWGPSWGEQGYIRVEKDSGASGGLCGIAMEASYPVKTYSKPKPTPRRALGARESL
A control without MTG was also included.
Shown in FIG. 6, selected reducing agents were added at 5 mM to ex vivo postprandial gastric fluid that was obtained from a healthy volunteer 15 minutes after eating and was incubated at 37° C. The proenzyme ALV001 was added to the gastric fluid. Acetate buffer at pH 4.5 was used as a control, because ALV001 is fully activated under these conditions. Samples were taken to determine ALV001 activity after 1.5, 5, 10, 20, […].
Samples were taken at 1.5, 5, 10, 20, and 40 minutes.

[3] = target: T1, ALV001; experiment: ALV001 activity under simulated postprandial gastric conditions with cysteine; parameters: ALV001 is the proenzyme or zymogen for Endoprotease B (Isoform 2); made in house; conditions: gluten-free meal chewed and spit into resting gastric fluid, ALV003 and varying levels of cysteine, simulated gastric acid secretion
Method: A gluten-free meal was chewed and spit into resting gastric fluid. ALV003 and varying levels of cysteine were added at time 0 and the stability of ALV001 activity was tested by monitoring chromogenic enzyme activity over time. Gastric acid secretion was simulated throughout the experiment.
A gluten-free meal was chewed and spit into resting gastric fluid. ALV003 and varying levels of cysteine were added at time 0, and the stability of ALV001 activity was measured by monitoring chromogenic enzyme activity over time. Gastric acid secretion was simulated throughout the experiment.
Target sequence in this assay (P25250 29-373 limits assumed): as above

[4] = target: T1, ALV001; experiment: Reversal of loss of enzyme activity: ALV003 pre-incubated in 15 minute postprandial gastric fluid, then MTG added; parameters: ALV001*(the active form of ALV001) is produced upon proteolytic cleavage of ALV001; made in house; conditions: 50 mM MTG, approximately 20 minutes after addition to pre-incubated ALV003 in 15 minute postprandial gastric fluid
Target sequence in this assay (P25250 134-373): as the sequence (P25250 134-373) above

[5] = target: T1, ALV001; experiment: Stabilization of ALV001 in ex vivo postprandial gastric fluid by added antioxidants/reducing/chelating agents (chromogenic activity); parameters: ALV001 is the proenzyme or zymogen for Endoprotease B (Isoform 2); made in house; conditions: for stabilization of ALV001 (FIG. 11): ALV001 at 0.12 mg/ml, 1.5-40 minutes; for stability of ALV001 in postprandial gastric fluid (FIG. 7): agent at 0.5 mM
Target sequence in this assay (P25250 29-373 limits assumed): as the sequence (P25250 29-373 limits assumed) above

[6] = target: T1, ALV001; experiment: Restoration of ALV001 activity by agents added after 15 minutes incubation in postprandial gastric fluid; parameters: ALV001 is the proenzyme or zymogen for Endoprotease B (Isoform 2); made in house; conditions: agent at 5 mM added after 15 minutes at 37° C. in postprandial gastric fluid; 1.5-40 minutes after addition
Method: ALV001 was added to postprandial gastric fluid and incubated for 15 minutes at 37° C. Reducing agents were added at 5 mM to the gastric fluid and then samples were taken to examine ALV001 activity at 1.5, 5, 10, 20, and 40 minutes after the addition of the reducing agents.
Target sequence in this assay (P25250 29-373 limits assumed): as above

[7] = target: T1, ALV001; experiment: ALV001 activity reconstituted in orange juice with or without sodium metabisulfite; parameters: ALV001 is the proenzyme or zymogen for Endoprotease B (Isoform 2); made in house; conditions: 3 mg/ml ALV001 in orange juice, 840 μM sodium metabisulfite
Method: 3 mg/ml ALV001 was reconstituted in orange juice with or without 840 μM sodium metabisulfite. Chromogenic enzyme activity was measured at the indicated timepoints to determine the relative amount of functional enzyme.
3 mg/ml ALV001 was reconstituted in orange juice with or without 840 μM sodium metabisulfite. Chromogenic enzyme activity was measured as described above, at the indicated timepoints, to determine the relative amount of functional enzyme, as shown in FIG. 13.
Target sequence in this assay (P25250 29-373 limits assumed): as above

SMILES	stabilization of ALV001* in early postprandial gastric fluid [1]	stability of ALV001 activity with agent added (FIG. 6) ([2]; agent at 5 mM)	stabilization (preservation of activity) of ALV001 in ex vivo gastric fluid [2]	further results
O[C@H](CS)[C@H](O)CS (racemic) [dithiothreitol]	demonstrated to stabilize ALV001*			
O=C(O)CCCC[C@@H]1CCSS1 (racemic) [lipoic acid]	demonstrated to stabilize ALV001*			stability of ALV001 in postprandial gastric fluid (FIG. 7) ([2]; agent at 5 mM): demonstrated to improve the stability of ALV001
OCCS [2-mercaptoethanol]	demonstrated to stabilize ALV001*			
N[C@@H](CS)C(=O)O [L-cysteine]	demonstrated to stabilize ALV001*	Substantial improvements in stability		stability of ALV001 activity under simulated postprandial gastric conditions (FIG. 14) [3]: stabilizes ALV001 activity
CSCC[C@H](N)C(=O)O [L-methionine]	did not stabilize the enzyme		did not stabilize	
OCC(O)CS (centres unmarked) [MTG, monothioglycerol]				restoration of enzymatic activity of ALV001* (FIG. 5) [4]: nearly full enzymatic activity was restored; loss of enzymatic activity of ALV001 (FIG. 4) ([5]; 50 mM MTG, 15 minute postprandial gastric fluid): no loss; rate of loss of enzymatic activity of ALV001 (FIG. 4) ([5]; MTG 0.01 to 50 mM, 15 minute postprandial gastric fluid): decreased with increasing MTG concentrations
CC(=O)N[C@@H](CS)C(=O)O [N-acetylcysteine]	demonstrated to stabilize ALV001*	Substantial improvements in stability		restoration of ALV001 enzyme activity [6]: partially restored the enzyme activity
Cl.O=C(O)CCP(CCC(=O)O)CCC(=O)O [TCEP, tris(2-Carboxyethyl)phosphine hydrochloride]	demonstrated to stabilize ALV001*			
O=C1O[C@H]([C@@H](O)CO)C(O)=C1O [ascorbic acid]	did not stabilize the enzyme	rapidly inactivated	did not stabilize	
N[C@@H](CCS)C(=O)O [homocysteine]	demonstrated to stabilize ALV001*			
O=S([O-])S(=O)(=O)[O-].[Na+].[Na+] [sodium metabisulfite]	demonstrated to stabilize ALV001*		particularly effective in stabilizing ALV001	stabilization of ALV001 (FIG. 11) ([5]; agent at 25 μM, postprandial gastric fluid): considerable stabilization; stability of ALV001 ([5]; agent at 50 μM): improved stability of ALV001; stabilization of ALV001 (FIG. 11) ([5]; agent at 50 μM, postprandial gastric fluid): best stabilization; stability of ALV001 in postprandial gastric fluid (FIG. 7) [5]: demonstrated to improve the stability of ALV001; stability of ALV001 activity in orange juice (FIG. 13) [7]: stabilizes ALV001 activity; also recorded: increased stability
O=S([O-])[O-].[Na+].[Na+] [sodium sulfite]	demonstrated to stabilize ALV001*	most effective stabilization	particularly effective in stabilizing ALV001	concentration down to which the stabilizing effect persists ([5]; postprandial gastric fluid (FIG. 8)): 0.05 mM; stabilization of ALV001 (FIG. 8) ([5]; sodium sulfite time course, postprandial gastric fluid): particularly effective; restoration of ALV001 enzyme activity [6]: partially restored the enzyme activity
O=S([O-])([O-])=S.[Na+].[Na+] [sodium thiosulfate]	demonstrated to stabilize ALV001*			stability of ALV001 in postprandial gastric fluid (FIG. 7) [5]: demonstrated to improve the stability of ALV001
